Experimental data as given in ChEMBL document CHEMBL3885861, “Open TG-GATES”.

Organism: Rattus norvegicus
Assay: Open TG-GATES - Regimen: Single
Assay type: toxicity, organism-based, Sprague-Dawley
Design: regimen Single, gender Male, age 6 weeks
Conditions: in vivo, po, 0 mg/kg, route gavage, dose level Control; for APTT / Bas / Eos / Fbg / Ht / Lym / MCH / MCHC / MCV / Mono / Neu / PT / Plat / RBC / Ret / WBC: tissue Blood; for KIDNEY_L / KIDNEY_R / KIDNEY_TOTAL: tissue Kidney; for LIVER: tissue Liver; for ALP / ALT / AST / BUN / CRE / Ca / Cl / DBIL / GLC / IP / K / LDH / Na / PL / RALB / TBIL / TC / TG / TP / gamma-GTP: tissue Plasma

Cc1cccc(Nc2cc(Cl)nc(SCC(=O)O)n2)c1C [PIRINIXIC ACID]
TERMINAL_BW (3 h): 202.9 g
APTT (3 h): 15.1 s
Bas (3 h): 0%
Eos (3 h): 0.4%
Fbg (3 h): 280 mg/dL
Ht (3 h): 40.2%
Lym (3 h): 77.6%
MCH (3 h): 21.5 pg
MCHC (3 h): 33.9%
MCV (3 h): 63.3 fL
Mono (3 h): 2.6%
Neu (3 h): 18%
PT (3 h): 12.3 s
Plat (3 h): 115.3 x10_4/uL
RBC (3 h): 636.6 x10_4/ul
Ret (3 h): 7.4%
WBC (3 h): 78.3 x10_2/uL
KIDNEY_L (3 h): 0.9 g
KIDNEY_R (3 h): 0.8 g
KIDNEY_TOTAL (3 h): 1.7 g
LIVER (3 h): 8.6 g
ALP (3 h): 1509.2 IU/L
ALT (3 h): 48.6 IU/L
AST (3 h): 77.6 IU/L
BUN (3 h): 11 mg/dL
CRE (3 h): 0.2 mg/dL
Ca (3 h): 10.9 mg/dL
Cl (3 h): 104.8 meq/L
DBIL (3 h): 0.036 mg/dL
GLC (3 h): 183.6 mg/dL
IP (3 h): 10.5 mg/dL
K (3 h): 3.8 meq/L
LDH (3 h): 91.6 IU/L
Na (3 h): 140 meq/L
PL (3 h): 166.4 mg/dL
RALB (3 h): 2.6 g/dL
TBIL (3 h): 0.046 mg/dL
TC (3 h): 82.8 mg/dL
TG (3 h): 121 mg/dL
TP (3 h): 5.6 g/dL
gamma-GTP (3 h): 1.2 IU/L
TERMINAL_BW (6 h): 201.9 g
APTT (6 h): 17.1 s
Bas (6 h): 0%
Eos (6 h): 0.6%
Fbg (6 h): 283.8 mg/dL
Ht (6 h): 40.4%
Lym (6 h): 73.4%
MCH (6 h): 22 pg
MCHC (6 h): 34.3%
MCV (6 h): 64 fL
Mono (6 h): 2.2%
Neu (6 h): 22.8%
PT (6 h): 12.2 s
Plat (6 h): 115 x10_4/uL
RBC (6 h): 630.8 x10_4/ul
Ret (6 h): 7.6%
WBC (6 h): 95.9 x10_2/uL
KIDNEY_L (6 h): 0.8 g
KIDNEY_R (6 h): 0.8 g
KIDNEY_TOTAL (6 h): 1.7 g
LIVER (6 h): 8 g
ALP (6 h): 1969 IU/L
ALT (6 h): 37.8 IU/L
AST (6 h): 74.4 IU/L
BUN (6 h): 10.2 mg/dL
CRE (6 h): 0.2 mg/dL
Ca (6 h): 10.7 mg/dL
Cl (6 h): 106.2 meq/L
DBIL (6 h): 0.026 mg/dL
GLC (6 h): 185.8 mg/dL
IP (6 h): 10.3 mg/dL
K (6 h): 4.1 meq/L
LDH (6 h): 69.2 IU/L
Na (6 h): 139.8 meq/L
PL (6 h): 145 mg/dL
RALB (6 h): 2.5 g/dL
TBIL (6 h): 0.046 mg/dL
TC (6 h): 75.8 mg/dL
TG (6 h): 78 mg/dL
TP (6 h): 5.4 g/dL
gamma-GTP (6 h): 1.2 IU/L
TERMINAL_BW (9 h): 205.2 g
APTT (9 h): 15.9 s
Bas (9 h): 0%
Eos (9 h): 0.8%
Fbg (9 h): 268 mg/dL
Ht (9 h): 39.5%
Lym (9 h): 74.6%
MCH (9 h): 21.3 pg
MCHC (9 h): 34.1%
MCV (9 h): 62.4 fL
Mono (9 h): 2.6%
Neu (9 h): 21.6%
PT (9 h): 12.4 s
Plat (9 h): 117.6 x10_4/uL
RBC (9 h): 632.8 x10_4/ul
Ret (9 h): 7.6%
WBC (9 h): 69.1 x10_2/uL
KIDNEY_L (9 h): 0.9 g
KIDNEY_R (9 h): 0.9 g
KIDNEY_TOTAL (9 h): 1.7 g
LIVER (9 h): 7.9 g
ALP (9 h): 1428 IU/L
ALT (9 h): 34.8 IU/L
AST (9 h): 67.4 IU/L
BUN (9 h): 10.6 mg/dL
CRE (9 h): 0.2 mg/dL
Ca (9 h): 10.6 mg/dL
Cl (9 h): 103.6 meq/L
DBIL (9 h): 0.02 mg/dL
GLC (9 h): 189 mg/dL
IP (9 h): 10.7 mg/dL
K (9 h): 3.6 meq/L
LDH (9 h): 52.8 IU/L
Na (9 h): 140.8 meq/L
PL (9 h): 146 mg/dL
RALB (9 h): 2.5 g/dL
TBIL (9 h): 0.038 mg/dL
TC (9 h): 80.2 mg/dL
TG (9 h): 53.6 mg/dL
TP (9 h): 5.2 g/dL
gamma-GTP (9 h): 1 IU/L
TERMINAL_BW (24 h): 212.4 g
APTT (24 h): 16.5 s
Bas (24 h): 0%
Eos (24 h): 1%
Fbg (24 h): 285.8 mg/dL
Ht (24 h): 38.8%
Lym (24 h): 73.8%
MCH (24 h): 21.6 pg
MCHC (24 h): 34.2%
MCV (24 h): 63.2 fL
Mono (24 h): 3%
Neu (24 h): 21.8%
PT (24 h): 12.2 s
Plat (24 h): 112.5 x10_4/uL
RBC (24 h): 614 x10_4/ul
Ret (24 h): 7.3%
WBC (24 h): 80.5 x10_2/uL
KIDNEY_L (24 h): 0.9 g
KIDNEY_R (24 h): 0.9 g
KIDNEY_TOTAL (24 h): 1.9 g
LIVER (24 h): 9.7 g
ALP (24 h): 1823.2 IU/L
ALT (24 h): 42.8 IU/L
AST (24 h): 71.4 IU/L
BUN (24 h): 14.8 mg/dL
CRE (24 h): 0.2 mg/dL
Ca (24 h): 11 mg/dL
Cl (24 h): 104.6 meq/L
DBIL (24 h): 0.02 mg/dL
GLC (24 h): 179.8 mg/dL
IP (24 h): 8.4 mg/dL
K (24 h): 4 meq/L
LDH (24 h): 61 IU/L
Na (24 h): 142.6 meq/L
PL (24 h): 147 mg/dL
RALB (24 h): 2.6 g/dL
TBIL (24 h): 0.032 mg/dL
TC (24 h): 79.8 mg/dL
TG (24 h): 71.6 mg/dL
TP (24 h): 5.5 g/dL
